Experimental data published in US20220275025A1, “BONE REMODELING REGULATORY PEPTIDES AND APPLICATION THEREOF” (THE SECOND XIANGYA HOSPITAL OF CENTRAL SOUTH UNIVERSITY, priority 2019, published 2022).
Square brackets hold non-standard residues; d marks the D form. Ends that are not written are not given here. Peptide text beside a SMILES is read from it. Hyp = O=C(O)[C@@H]1C[C@@H](O)CN1

What was measured:
mOSCAR = molecular target: T1, mOSCAR (Mus musculus, UniProt Q8VBT3); assay: Solid-phase binding experiment of collagen peptides with mOSCAR-His fusion protein; settings: peptide coated on 96-well plate, mOSCAR-His 37° C. 3 hours, absorbance at 492 nm
T1 construct: The extracellular domains of the mOSCAR were amplified by RT-PCR and inserted with expression vectors of His tag fusion proteins; made in house; host or cells: HEK293T cells
T1 sequence (Q8VBT3 19-231 limits assumed): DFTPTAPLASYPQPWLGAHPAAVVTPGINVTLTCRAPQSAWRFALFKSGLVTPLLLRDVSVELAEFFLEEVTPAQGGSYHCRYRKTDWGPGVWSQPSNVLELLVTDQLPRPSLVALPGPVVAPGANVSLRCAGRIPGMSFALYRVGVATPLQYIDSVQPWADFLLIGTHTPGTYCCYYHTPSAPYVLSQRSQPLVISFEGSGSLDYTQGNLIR
Method: 1) The extracellular domains of the mOSCAR were amplified by RT-PCR and inserted with expression vectors of His tag fusion proteins. Then, the constructed vectors were transfected into HEK293T cells for expression, and mOSCAR-His fusion protein were purified by ion-exchange chromatography and molecular sieve chromatography.
2) Collagen peptides were dissolved with 10 mM acetic acid and wrapped to a 96-well microtitration plate overnight. After being sealed in phosphate buffer containing bovine serum albumin at room temperature for 1 hour, mOSCAR-His fusion protein was added and incubated at 37° C. for 3 hours. Then, horseradish peroxidase-labeled goat anti-mouse IgG antibody that capable of reacting specifically with His added and incubated at room temperature for 1 hour. The binding mOSCAR-His fusion protein was detected by O-phenylenediamine dihydrochloride. The reaction was terminated by 3 M H2SO4, and the absorbance at 492 nm was measured. It was confirmed that the type II collagen peptide (OSC^pep) and 4 segments of type I collagen peptides (A1-1, A1-2-1, A1-4-1, A1-5-3) could bind to the mOSCAR (FIG. 5).

Primary BMMs [1] = assay: Cytotoxicity experiment, CCK-8 kit; assay type: cell-based, mouse; settings: 0, 1, 10, 100, 200, 500, 800, 1000, and 1500 μg/mL, 24 and 48 hours
Method: (§1) 1) Bilateral femurs and tibias of wild-type female mice were aseptically isolated, and bone marrow cells were obtained by repeatedly washing bone marrow cavities with culture medium. After culturing in α-MEM complete medium containing M-CSF (30 ng/mL) for 24-hour, nonadherent cells were suctioned, centrifuged, and resuspended, and then cultured in the α-MEM complete medium containing M-CSF (30 ng/mL) for 3 days to obtain adherent mouse primary bone marrow mononuclear macrophages (osteoclast precursor cells). Osteoclast precursor cells were conducted by M-CSF (50 ng/mL) and RANKL (100 ng/mL) to obtain osteoclast and identified by TRAP staining (FIG. 1A). The expression of the collagen receptor OSCAR on osteoclast precursor cells and osteoclasts were determined by immunofluorescence (FIG. 1B) and Western blot (FIG. 1C).
1) Primary BMMs were cultured in vitro according to the method in Part 1 above, the A1-1/A1-4-1 collagen peptide was taken as an example for carrying out the cytotoxicity experiment. Primary BMMs were treated with different concentrations (0, 1, 10, 100, 200, 500, 800, 1000, and 1500 μg/mL) of collagen peptide for 24 and 48 hours, and the cytotoxicity was determined by CCK-8 kit.

Primary BMMs [2] = assay: Osteoclast differentiation induced by M-CSF and RANKL, TRAP staining; assay type: cell-based, mouse
Method: as §1
2) Primary BMMs were treated with different concentrations of 5 collagen peptides, and induced to differentiate into osteoclasts by M-CSF and RANKL. The effect of different concentrations of collagen peptides on osteoclast differentiation was verified by TRAP staining. It was confirmed that all of the bone remodeling regulatory peptides could promote osteoclast differentiation at low concentration and inhibit osteoclast differentiation at high concentration (FIG. 6A).

osteoclasts = assay: Bone resorption of osteoclasts in peptide-primary BMMs-bone slice culture system, WGA staining; assay type: cell-based, mouse
Description: 3) Different concentrations of bone remodeling regulatory peptides-primary BMMs-bone slice culture system was constructed by using the above-mentioned method, and the cells in the system were induced to differentiate into osteoclasts by M-CSF and RANKL at the same time. The effect of collagen peptides on bone resorption of osteoclasts was verified by wheat germ agglutinin (WGA) staining. It was confirmed that all of the bone remodeling regulatory peptides could promote bone resorption of osteoclasts at low concentration and inhibit bone resorption of osteoclasts at high concentration (FIG. 6B).

Primary pre-osteoblasts = assay: Osteoblast differentiation, ALP staining; assay type: cell-based, mouse
Method: 2) After skulls of the wild-type mice were aseptically isolated, cells were isolated by collagenase digestion and nucleated cells were obtained by density gradient centrifugation. Cells were induced to differentiate into osteoblasts by medium containing 10 mM β-sodium glycerophosphate, 50 μM vitamin C and 10^−7 M dexamethasone and identified by ALP staining (FIG. 1D). The expression of the collagen receptor OSCAR on pre-osteoblasts induced for 0th, 7th, 14th, 21st, and 35th day and MLO-Y4 bone cell lines was determined by immunohistochemistry (FIG. 1E) and Western blot (FIG. 1F).
4) Primary pre-osteoblasts were cultured in vitro according to the method in Part 1 above. Then, cells were treated with different concentrations of 5 segments of collagen peptides, and induced to differentiate into osteoblast by 10 mM […], 50 μM vitamin C and 10^−7 M dexamethasone at the same time. The effect of the collagen peptides on osteoblast differentiation was verified by ALP staining. It was confirmed that the bone remodeling regulatory peptides could inhibit osteoblast differentiation and bone formation at low concentration and promote osteoblast differentiation and bone formation at high concentration (FIG. 6C). […]

| binding to the mOSCAR (mOSCAR) | Compound | cytotoxicity (Primary BMMs [1]) | other results |
| --- | --- | --- | --- |
| could bind | C[C@H](NC(=O)CN)C(=O)N1C[C@H](O)C[C@H]1C(=O)NCC(=O)N1CCC[C@H]1C(=O)N[C@@H](CCC(N)=O)C(=O)NCC(=O)N[C@@H](Cc1ccccc1)C(=O)N[C@@H](CCC(N)=O)C(=O)O [A1-1, Gly-Ala-Pro-Gly-Pro-Gln-Gly-Phe-Gln] (H-GA[Hyp]GPQGFQ-OH) | no toxic effect |  |
| could bind | C[C@H](NC(=O)[C@H](Cc1ccccc1)NC(=O)CNC(=O)[C@H](C)NC(=O)[C@@H]1CCCN1C(=O)CNC(=O)[C@@H]1C[C@@H](O)CN1C(=O)[C@@H]1CCCN1C(=O)CN)C(=O)O [A1-4-1, Gly-Pro-Pro-Gly-Pro-Ala-Gly-Phe-Ala] (H-GP[Hyp]GPAGFA-OH) | no toxic effect |  |
| could bind | Gly-Ala-Pro-Gly-Ala-Pro-Gly-Ser-Gln (GA[Hyp]GA[Hyp]GSQ) [A1-2-1] |  |  |
| could bind | Gly-Ala-Pro-Gly-Pro-Ala-Gly-Phe-Ala (GA[Hyp]GPAGFA) [OSC^pep] |  | concentration that inhibits osteoclast differentiation (Primary BMMs [2]; high concentration): ≥ 8000 µg/mL; concentration that promotes osteoclast differentiation (Primary BMMs [2]; low concentration): < 8000 µg/mL; concentration that inhibits bone resorption (osteoclasts; high concentration): ≥ 8000 µg/mL; concentration that promotes bone resorption (osteoclasts; low concentration): < 8000 µg/mL; concentration that inhibits osteoblast differentiation and bone formation (Primary pre-osteoblasts): < 8000 µg/mL; concentration that promotes osteoblast differentiation and bone formation (Primary pre-osteoblasts): ≥ 8000 µg/mL |
| could bind | Gly-Pro-Pro-Gly-Ala-Thr-Gly-Phe-Pro (GP[Hyp]GATGFP) [A1-5-3] |  |  |
